In one assay the test system is hSOD-1 protein levels in HeLa cells. Kind of assay: SOD-1 ELISA on lysates of HeLa cells after 72 h incubation with compound. The format is cell-based, human. To be noted: HeLa cells, 72 hours; dose related, maximal by 10 μM. The method, then:
Briefly, cells were maintained in Dulbecco's Minimal Essential Medium, with high glucose, supplemented with glutamine, 4 mM, certified fetal bovine serum, 10%, and penicillin, streptomycin, and nystatin (all from Invitrogen). Incubation conditions were 37 degrees and 99% relative humidity, with CO2 at 5%. Cultures were passaged when they reached 90% confluence. For pharmacological experiments, cells were plated into sterile tissue culture treated 96 well plates at a density of 3,500 cells/well in 150 μl medium. After plating and 6 hours for attachment, drugs were added to the medium in a concentration of 10 μM. Following 72 hours of incubation with the drugs, the cells were photographed at 100× using an inverted microscope and digital camera, so that cytotoxicity could be evaluated. After photodocumentation, the medium was removed and the cells were washed once with phosphate buffered saline, and then 50-100 μl molecular biology grade water containing a protease inhibitor cocktail was added. After 10 min incubation, the plates were placed in −80 degrees to induce complete lysis. Plates were then thawed and 4-25 μl was transferred from each well into a maxsorp ELISA plate coated with anti-human SOD-1 antibody, which contained 75-100 μl phosphate buffered saline or blocking buffer. A second antibody pair (a polyclonal anti-SOD-1/HRP conjugated goat anti-rabbit) was then added to the well, and incubation was conducted for 1 hour at room temperature. At the conclusion of the incubation, the plate was washed three times (wash buffer from KPL Inc.) and Sure Blue Reserve HRP Substrate was added. Following a 5-10 min incubation, the reaction (which had turned blue to varying degrees) was stopped by the addition of a stop reagent (KPL). The plate was then shaken gently for 5 seconds and the absorbance at 450 nm read on a Tecan Plate reader. Absorbance from each sample were compared to standard curve of purified recombinant human SOD-1 assayed on the same ELISA plate, and SOD-1 immunoreactivity (ng/ml) was estimated by comparison with the standard curve. This example describes how to examine the in vitro effects of the antimalarial drug, pyrimethamine, as well as the compounds listed in Tables 1 through 5, on SOD-1 activity. The human cervical carcinoma derived HeLa cell line (ATCC) were cultured in Dulbecco's Minimal Essential Medium, with high glucose, supplemented with glutamine, 4 mM, certified fetal bovine serum, 10%, and penicillin, streptomycin, and nystatin (all from Invitrogen). Incubation conditions were 37° C. and 99% relative humidity, with CO2 at 5%. Cultures were passaged when they reached 90% confluence. For pharmacological experiments, cells were plated into sterile tissue culture treated 96 well plates at a density of 3,500 cells/well in 150 μl medium. Following 72 hours of incubation with each of the compounds, the cells were photographed and processed as described in Example 1 (iii). The total protein of the lysates was determined by Bradford assay as described in Example 1 (iv).
On the technique in general: ELISA stands for enzyme-linked immunosorbent assay.
On to `CN(Cc1cnc2nc(N)nc(N)c2n1)c1ccc(C(=O)N[C@@H](CCC(=O)O)C(=O)O)cc1` [methotrexate, reference compound], for which the “levels of SOD-1 protein in HeLa cells” value is “did not reduce”.

Staying with this assay, now noted: Table 1B; % reduction of hSOD-1 protein levels in HeLa cells, 72 h treatment, 10 μM.
With `Cc1cc(-c2ccccc2)nc(N(C)C)n1` [Compound 1], the “Biological Activity (% inhibition at 10 μM)” value turned out to be 33%.
`CN(C)c1cc(Cl)nc(SCc2ccccc2)n1` [Compound 2]: the “Biological Activity (% inhibition at 10 μM)” value amounted to 77%.
Turning to `Cc1cc(C)nc(SCc2cccc(Br)c2)n1` [Compound 3], the “Biological Activity (% inhibition at 10 μM)” value is on record as 88%.
Still for that read-out and setting: then `Cc1ccc(Nc2nc(Cl)nc(Cl)c2Cl)cc1` [Compound 4], with 96%; and `Cc1cnc(SCc2ccccc2Cl)nc1O` [Compound 5], with 79%; and `CCc1nc(N)nc(N)c1-c1ccc(Cl)cc1` [Compound 6], with 50%.
Same read-out and setting: the result for `Cc1cccc(Oc2cnc(S)nc2O)c1` [Compound 7] reads 94%; that for `Nc1nc(S)ncc1-c1cccc(Cl)c1` [Compound 8], 99%; that for `N#Cc1ccc(CSc2nc(O)cc(O)n2)cc1` [Compound 9], 58%.
As for `CCCOc1ccc(-c2cnc(S)nc2N)cc1` [Compound 10], the “Biological Activity (% inhibition at 10 μM)” value is on record as 99%.
The same measure, in the same setting: the result for `CCOc1ccc(-c2cnc(S)nc2N)cc1` [Compound 11] reads 99%.
The same measure, in the same setting: the result for `COc1ccc(Cc2c(Cl)nc(SC)nc2Cl)cc1` [Compound 12] reads 40%; that for `CC(Oc1ccc(Cl)cc1)c1ccnc(N)n1` (stereo not shown) [Compound 22], 84%; that for `Nc1nc(O)ncc1-c1ccc(Cl)cc1` [Compound 23], 99%.
For `Nc1nc(SCC(=O)O)ncc1-c1ccc(Cl)cc1` [Compound 24], the “Biological Activity (% inhibition at 10 μM)” value is recorded as 99%.
As to `Cc1ccc(Oc2cnc(S)nc2O)cc1` [Compound 25], the “Biological Activity (% inhibition at 10 μM)” value is on record as 97%.
Still for that read-out and setting: the result for `Cc1nc(N)nc(O)c1C=CCc1ccc(Cl)cc1` [Compound 26] reads 97%; that for `Cc1nc(N)nc(N)c1CCCCc1ccc(O)cc1` [Compound 27], 95%; that for `CSc1ncc(Oc2ccc(Cl)cc2)c(O)n1` [Compound 88], 90%.
On to `COc1ccc(-c2cc(O)ncn2)cc1OC` [Compound 89], for which the “Biological Activity (% inhibition at 10 μM)” value is listed as 84%.
Same read-out and setting: then `Nc1ccc(Sc2cc(Cl)nc(N)n2)cc1` [Compound 92], with 81%; and `Cc1cc(C)nc(NC(=N)Nc2cccc(Cl)c2)n1` [Compound 93], with 78%.
In the case of `Cc1cc(C)nc(Sc2ccc(N)cc2)n1` [Compound 94], the “Biological Activity (% inhibition at 10 μM)” value is recorded as 77%.
The same measure, in the same setting: the result for `CSc1nc(N)nc(-c2ccc(Cl)cc2)c1C#N` [Compound 95] reads 76%.
For the compound `CCc1c(O)ncnc1-c1ccc(C)cc1` [Compound 96], the “Biological Activity (% inhibition at 10 μM)” value is recorded as 70%.
Same read-out and setting: the result for `CSc1ccc(CCCc2c(C)nc(N)nc2N)cc1` [Compound 97] reads 69%; that for `COc1ccc(Cc2c(C)nc(N)nc2O)cc1` [Compound 98], 67%.
Same read-out and setting: the result for `Oc1ccnc(SCc2ccc(Cl)cc2Cl)n1` [Compound 99] reads 66%; that for `COc1ccc(CCCc2c(C)nc(N)nc2N)cc1` [Compound 100], 65%; that for `Oc1ccnc(SCc2c(F)cccc2Cl)n1` [Compound 101], 65%.
Same read-out and setting: the result for `COc1ccc(Cc2cnc(N)nc2N)cc1OC` [Compound 102] reads 64%; that for `N#Cc1ccc(CSc2nccc(O)n2)cc1` [Compound 105], 53%; that for `N#Cc1c(Cl)nc(Cl)nc1Nc1ccccc1` [Compound 106], 53%.
`CC(=O)c1c(C)nc(-c2ccc(Cl)cc2)nc1N` [Compound 107]: the “Biological Activity (% inhibition at 10 μM)” value is recorded as 52%.
Still for that read-out and setting: then `Cc1nc(N)nc(N)c1C=Cc1ccccc1` [Compound 109], with 38%.
`Cc1nc(N)nc(N)c1OCc1ccc(Cl)cc1Cl` [Compound 110]: the “Biological Activity (% inhibition at 10 μM)” value came to 38%.
For `Cc1nc(N)nc(N)c1OCCc1ccc(Cl)cc1` [Compound 111], the “Biological Activity (% inhibition at 10 μM)” value is reported as 37%.
On the same count and under the same terms, then `Cc1nc(N)nc(N)c1-c1ccc(Cl)c(Cl)c1` [Compound 112], with 36%; and `COc1cc(N)nc(SCc2ccccc2Cl)n1` [Compound 113], with 36%; and `Cc1cc(O)nc(SCc2ccc(Cl)cc2Cl)n1` [Compound 114], with 35%.
With `COc1ccc(Cc2c(O)nc(S)nc2O)cc1` [Compound 116], the “Biological Activity (% inhibition at 10 μM)” value was 33%.
`Cc1ccccc1CCCc1c(C)nc(N)nc1N` [Compound 118]: the “Biological Activity (% inhibition at 10 μM)” value is 31%.

Staying with this assay, now noted: Table 2; % reduction of hSOD-1 protein levels in HeLa cells, 72 h treatment, 10 μM.
With `Cc1ccc(Nc2nc(N)nc(Cl)n2)cc1` [Compound 164], the “Biological Activity (% inhibition at 10 μM)” value is given as 43%.
For `Cc1ccc(Nc2nc(N)nc(CCl)n2)c(C)c1` [Compound 165], the “Biological Activity (% inhibition at 10 μM)” value is reported as 99%.
Consider `CCSc1nc(-c2ccccc2)nc(C(Cl)Cl)n1` [Compound 166], for which the “Biological Activity (% inhibition at 10 μM)” value is 98%.
`CSc1nc(-c2ccc(C)cc2)nc(C(Cl)Cl)n1` [Compound 168]: the “Biological Activity (% inhibition at 10 μM)” value turned out to be 75%.
Take `CCCCNc1nc(N)nc(-c2cc(Cl)ccc2O)n1` [Compound 170]: the “Biological Activity (% inhibition at 10 μM)” value is given as 99%.
On the same count and under the same terms, then `CC(C)Nc1nc(Cl)nc(-c2ccccc2)n1` [Compound 186], with 82%; and `Nc1nc(CCl)nc(Nc2ccccc2)n1` [Compound 187], with 77%; and `CC(Nc1nc(N)nc(Cl)n1)c1ccccc1` (stereo not shown) [Compound 188], with 38%.
The same measure, in the same setting: the result for `CNc1nc(N)nc(-c2cc(Cl)ccc2OC)n1` [Compound 189] reads 35%; that for `Nc1nc(N)nc(-c2ccccc2Cl)n1` [Compound 190], 34%.
`CCCNc1nc(N)nc(-c2cc(Cl)ccc2OC)n1` [Compound 191]: the “Biological Activity (% inhibition at 10 μM)” value worked out at 32%.
Same read-out and setting: then `Nc1nc(N)nc(-c2cccc([N+](=O)[O-])c2)n1` [Compound 192], with 32%; and `Nc1nc(Nc2ccc(Cl)cc2)nc(C(Cl)Cl)n1` [Compound 193], with 29%.

The same assay, now with this note: Table 3; % reduction of hSOD-1 protein levels in HeLa cells, 72 h treatment, 10 μM.
For the compound `COc1cccc2oc(-c3ccccc3O)cc(=O)c12` [Compound 121], the “Biological Activity (% inhibition at 10 μM)” value is 71%.

Staying with this assay, now noted: Table 4 quinazolines; % reduction of hSOD-1 protein levels in HeLa cells following 72 h treatment with 10 μM compound.
Turning to `CN1CCN(c2cc(C(F)(F)F)nc3ccc(F)cc23)CC1` [Compound 136], the “Biological Activity (% inhibition at 10 μM)” value came out at 64%.

The assay is the same for the next values; noted with them: Table 5 heterocyclic amides; % reduction of hSOD-1 protein levels in HeLa cells following 72 h treatment with 10 μM compound.
As for `Nc1ccc(C(=O)Nc2ncccn2)cc1` [Compound 194], the “Biological Activity (% inhibition at 10 μM)” value is recorded as 92%.
The same measure, in the same setting: the result for `Cc1ccc(C(=O)Nc2ncccc2Cl)cc1` [Compound 197] reads 74%; that for `Cc1ccnc(NC(=O)c2cccc(Cl)c2)c1` [Compound 198], 67%.
In the case of `Cc1ccc(NC(=O)c2cc(Cl)ccc2Cl)nc1` [Compound 199], the “Biological Activity (% inhibition at 10 μM)” value was 94%.
Same read-out and setting: then `Cc1ccc(C(=O)Nc2ccc(Cl)cn2)cc1C` [Compound 200], with 39%; and `Cc1cccc(C(=O)Nc2ccc(Cl)cn2)c1` [Compound 201], with 39%.

Source of the values: patent US20070135437A1, “Modulation of neurodegenerative diseases” (ALSGEN, INC., priority 2005, published 2007).
